“And” between values parts separate entries of the source, which are not always exact repeats. Identical values can stand only once. Like-named read-outs stand apart in the source and are kept apart here.
Columns and labels:
recombinant perforin [1] = biological target: T1, recombinant perforin (Mus musculus, UniProt P10820); test: Inhibition of perforin-mediated lysis of Jurkat cells (51Cr release); format: cell-based
T1 sequence (P10820 21-554): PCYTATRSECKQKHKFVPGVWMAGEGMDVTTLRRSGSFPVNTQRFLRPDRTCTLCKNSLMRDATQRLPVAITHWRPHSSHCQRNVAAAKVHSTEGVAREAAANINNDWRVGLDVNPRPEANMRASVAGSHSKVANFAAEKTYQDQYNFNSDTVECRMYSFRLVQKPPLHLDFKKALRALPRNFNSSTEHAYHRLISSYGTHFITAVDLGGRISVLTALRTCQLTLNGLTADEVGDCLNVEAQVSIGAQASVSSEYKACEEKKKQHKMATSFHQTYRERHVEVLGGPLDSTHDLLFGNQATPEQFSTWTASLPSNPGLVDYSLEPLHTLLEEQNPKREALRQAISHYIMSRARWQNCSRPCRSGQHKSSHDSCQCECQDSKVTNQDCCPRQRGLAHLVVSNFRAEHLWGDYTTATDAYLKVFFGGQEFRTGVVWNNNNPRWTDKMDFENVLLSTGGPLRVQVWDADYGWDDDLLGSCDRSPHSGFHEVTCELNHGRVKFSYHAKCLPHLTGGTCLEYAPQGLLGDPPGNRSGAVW
Protocol: The ability of the compounds to inhibit the lysis of nucleated (Jurkat T lymphoma) cells in the presence of 0.1% BSA, as measured by release of ^51Cr was measured. Jurkat target cells were labelled by incubation in medium with 100 µCi ^51Cr for one hour. The cells were then washed three times to remove unincorporated isotope and re-suspended at 1 x 10^5 cells per mL in RPMI buffer supplemented with 0.1% BSA. […] The supernatant was collected and assessed for its radioactive content on a gamma counter (Wallac Wizard 1470 automatic gamma counter). Each data point was performed in triplicate and an IC50 was calculated from the range of concentrations described to above.

[2] = Toxicity to KHYG-1 NK cells (Trypan blue exclusion); format: cell-based, human; settings: human, KHYG-1 NK cells, after 24 h, ± SEM
Protocol: (§1) The use of NK cells to secrete perforin rather than employing isolated recombinant protein is a more stringent test of a compound’s ability to block lytic activity, requiring the inhibitor to access the synaptic cleft between effector (NK) and target cells where perforin is released.
(§2) The toxicity assay was carried out in exactly the same manner as the killing assay above, but instead of adding the labelled K562 target cells, 100 μL of RPMI 0.1% BSA was added. Cells were incubated for 4 h at 37 °C and then washed ×3 in RPMI + 0.1% BSA. […] Trypan blue was added to each well. Viable (clear) cells and total (clear + blue) cells were counted, and the percentage of viable cells was calculated compared to DMSO treated cell control (% viability).

KHYG-1 NK cells = test: as above; format: cell-based, human; settings: after 24 h, ± SEM, 20 µM
Protocol: as §1, §2

[3] = Solubility of the sodium salt in water; format: physicochemical
[4] = Stability in solution (water); format: physicochemical; settings: sodium salt, 24 h at 20 °C in water
[5] = Microsome stability, mouse; format: in vitro ADME; settings: sodium salt, mouse microsomes, 30 min
Microsome stability, rat = format: in vitro ADME; settings: sodium salt, rat microsomes, 30 min
[6] = Microsome stability, human; format: in vitro ADME; settings: sodium salt, human microsomes, 30 min
[7] = Plasma protein binding by equilibrium dialysis; format: in vitro ADME; settings: mouse plasma, 6 h incubation at 37 °C
recombinant perforin [8] = biological target: T1, recombinant perforin; settings: diarylthiophene series; cited from earlier work
[9] = biological target: T2, perforin delivered by KHYG-1 NK cells (Homo sapiens, UniProt P14222); test: KHYG-1 cytotoxicity assay: inhibition of NK cell lysis of 51Cr-labelled K562 target cells; format: cell-based; settings: lysis of 51Cr-labelled K562 cells co-incubated with KHYG-1 NK cells, vs untreated control, ± SEM
T2 construct: The use of NK cells to secrete perforin rather than employing isolated recombinant protein is a more stringent test; endogenous in cells; host or cells: KHYG-1 NK cells (effector), K562 target cells
T2 sequence (P14222 22-555): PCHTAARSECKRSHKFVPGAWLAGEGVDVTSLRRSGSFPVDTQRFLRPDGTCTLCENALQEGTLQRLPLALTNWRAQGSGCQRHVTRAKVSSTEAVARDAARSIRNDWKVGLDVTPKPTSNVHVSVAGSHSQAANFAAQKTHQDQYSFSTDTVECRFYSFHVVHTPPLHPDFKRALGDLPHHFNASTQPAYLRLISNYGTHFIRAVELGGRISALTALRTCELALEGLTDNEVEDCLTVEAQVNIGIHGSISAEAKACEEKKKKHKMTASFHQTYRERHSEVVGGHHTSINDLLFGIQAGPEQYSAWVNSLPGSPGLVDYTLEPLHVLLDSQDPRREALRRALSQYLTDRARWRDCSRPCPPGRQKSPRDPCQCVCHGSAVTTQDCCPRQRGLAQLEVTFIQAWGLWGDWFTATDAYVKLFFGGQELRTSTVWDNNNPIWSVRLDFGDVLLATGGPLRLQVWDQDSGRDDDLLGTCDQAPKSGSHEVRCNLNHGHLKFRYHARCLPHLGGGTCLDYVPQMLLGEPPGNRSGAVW
Protocol: as §1
Test compounds are then added (50 µL) at a final concentration of 20µM and incubated at RT for 20 min. ^51Cr-labelled K562 leukemia target cells (50 µL, 2 x 10^5 cells/mL) are then added to each well and incubated at 37 °C for 4 hours. ^51Cr release is assayed using a Skatron Harvesting Press and radioactivity estimated on a Wallac Wizard 1470 Automatic Gamma counter (Turku, Finland). The inhibitory function is then determined by identifying the number of untreated or inhibitor treated effector cells required to kill the same number of targets. The percent inhibition is calculated by the formula: […]
Where x is the point the inhibitor intersects with the DMSO on a curve.

[10] = biological target: Class I PI3-kinase enzyme p110α/p85 (Homo sapiens, UniProt P42336); test: PI3K-α counterscreening; format: biochemical; settings: recombinant PI3-kinase, phosphatidylinositol substrate, [33P]-ATP; read-out: PI3Kα IC50
Chain of Class I PI3-kinase enzyme p110α/p85 (P42336 whole entry): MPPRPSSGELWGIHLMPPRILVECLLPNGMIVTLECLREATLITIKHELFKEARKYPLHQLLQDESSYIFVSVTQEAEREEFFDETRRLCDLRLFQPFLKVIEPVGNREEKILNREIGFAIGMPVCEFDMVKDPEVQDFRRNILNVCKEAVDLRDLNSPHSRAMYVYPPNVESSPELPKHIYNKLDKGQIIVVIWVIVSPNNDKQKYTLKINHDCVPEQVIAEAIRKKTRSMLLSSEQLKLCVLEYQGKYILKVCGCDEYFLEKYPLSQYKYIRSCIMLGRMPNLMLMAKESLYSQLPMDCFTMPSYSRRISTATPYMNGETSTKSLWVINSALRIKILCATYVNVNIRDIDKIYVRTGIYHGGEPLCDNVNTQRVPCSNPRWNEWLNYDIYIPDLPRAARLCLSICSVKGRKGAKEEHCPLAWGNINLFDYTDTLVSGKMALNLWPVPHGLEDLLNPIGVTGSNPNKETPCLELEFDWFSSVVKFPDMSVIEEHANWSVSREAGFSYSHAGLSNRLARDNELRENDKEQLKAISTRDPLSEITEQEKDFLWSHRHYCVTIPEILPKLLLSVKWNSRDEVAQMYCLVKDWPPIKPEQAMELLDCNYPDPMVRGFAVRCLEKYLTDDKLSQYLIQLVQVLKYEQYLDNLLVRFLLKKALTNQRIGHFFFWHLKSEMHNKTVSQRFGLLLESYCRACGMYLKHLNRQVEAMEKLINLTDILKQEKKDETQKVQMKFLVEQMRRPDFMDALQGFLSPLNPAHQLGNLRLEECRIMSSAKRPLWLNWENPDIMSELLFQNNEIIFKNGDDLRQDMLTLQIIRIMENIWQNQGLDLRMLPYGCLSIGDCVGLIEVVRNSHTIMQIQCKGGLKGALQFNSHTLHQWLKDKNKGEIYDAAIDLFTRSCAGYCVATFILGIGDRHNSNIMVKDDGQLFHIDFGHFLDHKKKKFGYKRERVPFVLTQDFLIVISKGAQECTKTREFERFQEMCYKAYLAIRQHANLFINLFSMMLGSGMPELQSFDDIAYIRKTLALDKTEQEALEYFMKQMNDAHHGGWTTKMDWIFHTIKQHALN
Chain of Class I PI3-kinase enzyme p110α/p85 (P27986 whole entry partner): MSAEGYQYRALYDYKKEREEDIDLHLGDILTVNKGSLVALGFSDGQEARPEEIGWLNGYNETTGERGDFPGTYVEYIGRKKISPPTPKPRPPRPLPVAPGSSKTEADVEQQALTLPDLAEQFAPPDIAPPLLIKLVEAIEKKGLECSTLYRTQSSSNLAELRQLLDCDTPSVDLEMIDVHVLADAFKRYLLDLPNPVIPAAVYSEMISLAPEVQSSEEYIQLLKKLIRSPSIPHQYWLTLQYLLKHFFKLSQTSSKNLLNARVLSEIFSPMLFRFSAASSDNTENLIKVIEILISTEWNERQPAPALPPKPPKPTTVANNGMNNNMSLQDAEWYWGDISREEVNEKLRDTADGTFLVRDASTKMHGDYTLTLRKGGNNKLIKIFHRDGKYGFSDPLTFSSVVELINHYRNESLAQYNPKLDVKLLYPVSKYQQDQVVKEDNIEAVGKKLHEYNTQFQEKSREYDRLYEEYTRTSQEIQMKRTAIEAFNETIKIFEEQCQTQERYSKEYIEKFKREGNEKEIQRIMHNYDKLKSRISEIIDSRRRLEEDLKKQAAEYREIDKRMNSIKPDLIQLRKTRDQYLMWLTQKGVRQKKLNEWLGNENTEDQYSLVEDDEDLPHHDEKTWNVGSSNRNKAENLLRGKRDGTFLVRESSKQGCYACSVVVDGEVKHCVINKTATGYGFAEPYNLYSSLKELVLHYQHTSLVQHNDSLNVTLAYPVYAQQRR
Protocol: Given that the pyridine-3-yl-2,4-difluorobenzenesulphonamide subunit is derived from a structure that was optimised to target PI3Kα, it was also considered prudent to counter-screen for off-target effects related to this pathway.
Compounds were evaluated for their ability to inhibit the Class I PI3-kinase enzyme p110α/p85.

recombinant perforin [11] = biological target: T1, recombinant perforin; test: Inhibition of perforin-mediated lysis of Jurkat cells (51Cr release); format: cell-based; settings: read-out: Inhibitory activity in Jurkat assay at 20 μM with serum
[12] = read-out: Inhibition of Jurkat cell lysis IC50; recombinant perforin, 0.1% BSA, 51Cr release, 4 h; average of at least two determinations
[13] = recombinant perforin, 0.1% BSA, 51Cr release, 4 h; average of at least two determinations; read-out: Inhibition of Jurkat cell lysis IC50
[14] = sodium salt in water at room temperature

## Cn1ccc2cc(-c3ccc(-c4cncc(NS(=O)(=O)c5ccc(F)cc5F)c4)s3)ccc21 [Compound 17]
Recombinant perforin [1]; [12]
  IC50: 7.58 µM

## O=C1NCCc2cc(-c3ccc(-c4cncc(NS(=O)(=O)c5ccc(F)cc5F)c4)s3)ccc21 [Compound 9]
Recombinant perforin [1]; [13]
  IC50: > 20 µM

## O=C1Cc2cc(-c3ccc(-c4cncc(NS(=O)(=O)c5ccc(F)cc5F)c4)s3)ccc2N1 [Compound 14]
Recombinant perforin [1]; compared with compound 15
  Fold superior to N-methyl partner 15 (Jurkat IC50): ~2 fold
Recombinant perforin [1]; [12]
  IC50: 5.18 µM
[2]
  viability at 24 h, 20 µM: > 90%
KHYG-1 NK cells
  KHYG-1 viability (% at 20 μM): 96 ± 1.0%
[3]; sodium salt in water
  solubility: 390 µg/mL
[3]; [14]
  solubility: 392 µg/mL
[4]
  Stability in solution (% parent remaining): 88.7%
[5]
  Microsome stability (% parent remaining), Mouse: 84%
Microsome stability, rat
  Microsome stability (% parent remaining), Rat: 79%
[6]
  Microsome stability (% parent remaining), Human: 71%
[7]
  fraction unbound at 6 h: 0.0009

## O=C1NCCc2ccc(-c3ccc(-c4cncc(NS(=O)(=O)c5ccc(F)cc5F)c4)s3)cc21 [Compound 11]
Recombinant perforin [1]; [13]
  IC50: > 20 µM

## O=C1NCc2cc(-c3ccc(-c4cncc(NS(=O)(=O)c5ccc(F)cc5F)c4)s3)ccc21 [Compound 6]
[2]
  viability at 24 h, 20 µM: > 90%
KHYG-1 NK cells
  KHYG-1 viability (% at 20 μM): 94 ± 4.0%
[3]; sodium salt in water
  solubility: 10600 µg/mL
[3]; [14]
  solubility: 10600 µg/mL
[4]
  Stability in solution (% parent remaining): 82.0%
[5]
  Microsome stability (% parent remaining), Mouse: 92%
Microsome stability, rat
  Microsome stability (% parent remaining), Rat: 88%
[6]
  Microsome stability (% parent remaining), Human: 85%
[7]
  fraction unbound at 6 h: 0.003

## CN1Cc2ccc(-c3ccc(-c4cncc(NS(=O)(=O)c5ccc(F)cc5F)c4)s3)cc2C1=O [Compound 8]
Recombinant perforin [1]; [12]
  IC50: 10.4 µM

## CC1c2cc(-c3ccc(-c4cncc(NS(=O)(=O)c5ccc(F)cc5F)c4)s3)ccc2C(=O)N1C (stereo not drawn) [Compound 13]
Recombinant perforin [1]; recombinant perforin, 0.1% BSA, 51Cr release, 4 h; average of at least two determinations
  Inhibition of Jurkat cell lysis IC50: poor activity
Recombinant perforin [1]; [13]
  IC50: > 20 µM

## CS(=O)(=O)Nc1ccc(-c2ccc(-c3ccc4c(c3)COC4=O)s2)cc1 [Compound 2]
Recombinant perforin [8]
  Inhibition of isolated perforin: sub-micromolar

## CN1Cc2cc(-c3ccc(-c4cncc(NS(=O)(=O)c5ccc(F)cc5F)c4)s3)ccc2C1=O [Compound 5]
[9]
  inhibition at 20 µM: 88 ± 3.8%
[3]; sodium salt in water
  solubility: 1100 µg/mL
[3]; [14]
  solubility: 1080 µg/mL
[4]
  Stability in solution (% parent remaining): 82% and 81.5%
[6]
  Microsome stability (% parent remaining), Human: 58%
[7]
  fraction unbound at 6 h: 0.0011
[10]
  IC50: > 6.25 µM

## CN1CCc2cc(-c3ccc(-c4cncc(NS(=O)(=O)c5ccc(F)cc5F)c4)s3)ccc2C1=O [Compound 10]
Recombinant perforin [1]; [13]
  IC50: > 20 µM

## O=S(=O)(Nc1cncc(-c2ccc(-c3ccc4[nH]ccc4c3)s2)c1)c1ccc(F)cc1F [Compound 16]
Recombinant perforin [1]; Jurkat, read-out: Inhibitory activity in Jurkat assay at 20 μM
  inhibition at 20 µM: 88%
Recombinant perforin [11]
  inhibition at 20 µM: 32%

## CC(=O)c1cn(C)c2ccc(-c3ccc(-c4cncc(NS(=O)(=O)c5ccc(F)cc5F)c4)s3)cc12 [Compound 18]
Recombinant perforin [1]; [12]
  IC50: 11.2 µM

## NC(=O)c1ccc(-c2ccc(-c3ccc4c(c3)COC4=O)s2)cn1 [Compound 3]
Recombinant perforin [8]
  Inhibition of isolated perforin: sub-micromolar

## CN1Cc2cc(-c3ccc(-c4cncc(NS(=O)(=O)c5ccc(F)cc5F)c4)o3)ccc2C1=O [Compound 19]
Recombinant perforin [1]; [13]
  IC50: 15 µM

## CN1Cc2cc(-c3ccc(-c4cncc(NS(=O)(=O)c5ccc(F)cc5F)c4)nc3)ccc2C1=O [Compound 22]
Recombinant perforin [1]; [12]
  IC50: 8.17 µM

## CN1Cc2cc(-c3ncc(-c4cncc(NS(=O)(=O)c5ccc(F)cc5F)c4)s3)ccc2C1=O [Compound 20]
Recombinant perforin [1]; [12]
  IC50: 17.1 µM

## CN1Cc2cc(-c3nc(-c4cncc(NS(=O)(=O)c5ccc(F)cc5F)c4)cs3)ccc2C1=O [Compound 21]
Recombinant perforin [1]; [13]
  IC50: > 20 µM

## O=C1NCc2ccc(-c3ccc(-c4cncc(NS(=O)(=O)c5ccc(F)cc5F)c4)s3)cc21 [Compound 7]
Recombinant perforin [1]; [12]
  IC50: 4.15 µM
[2]
  viability at 24 h, 20 µM: > 90%
KHYG-1 NK cells
  KHYG-1 viability (% at 20 μM): 96 ± 6.0%
[3]; sodium salt in water
  solubility: 12900 µg/mL
[3]; [14]
  solubility: 12900 µg/mL
[4]
  Stability in solution (% parent remaining): 97% and 97.3%
[5]
  Microsome stability (% parent remaining), Mouse: 42%
Microsome stability, rat
  Microsome stability (% parent remaining), Rat: 82%
[6]
  Microsome stability (% parent remaining), Human: 83%
[7]
  fraction unbound at 6 h: 0.0003

## CN1C(=O)Cc2cc(-c3ccc(-c4cncc(NS(=O)(=O)c5ccc(F)cc5F)c4)s3)ccc21 [Compound 15]
Recombinant perforin [1]; [12]
  IC50: 10.3 µM
